Like-named read-outs stand apart in the source and are kept apart here.
How the values were obtained:
T. cruzi (Y strain) = experiment: Anti-trypanosomal cell culture assay, T. cruzi-infected J774 macrophages; assay type: cell-based; details: inhibitor 10 μM, cultures up to 30 days
Method: Drug Screening in Cell Culture. Mammalian cells are routinely cultured in RPMI-1640 medium supplemented with 5-10% heat-inactivated fetal calf serum (FCS) at 37° C. in 5% CO2. The Y strain of T. cruzi is maintained by serial passage in bovine embryo skeletal muscle (BESM) cells. Infectious trypomastigotes are collected from culture supernatants. For drug assays, J774 macrophages were irradiated (5000 rad) and plated onto six-well tissue culture plates 24 h prior to infection with ˜106 trypomastigotes/well. […] Inhibitor stocks (10 mM) in DMSO were stored at 4° C. J774 monolayers treated with a blank containing DMSO are used as a negative control, and monolayers treated with a known trypanocidal inhibitor, 10 μM N-methyl piperazine-Phe-homoPhe-vinyl sulfone phenyl (N-Pip-F-hF-VSPh) acted as a positive control (Engel et al., J. Exp. Med., 188:725-734 (1998)). RPMI medium with or without inhibitor is replaced every 48 h. Cultures are maintained for up to 30 days and monitored daily by contrast phase microscopy. […] The comparative effectiveness of each inhibitor was estimated from plots of the duration of the intracellular cycle of T. cruzi (days) in treated vs untreated control wells.

[1] = target: T. cruzi cathepsin L-like protease (cruzain) (Trypanosoma cruzi, UniProt P25779); experiment: biochemical
Chain of T. cruzi cathepsin L-like protease (cruzain) (P25779 123-467): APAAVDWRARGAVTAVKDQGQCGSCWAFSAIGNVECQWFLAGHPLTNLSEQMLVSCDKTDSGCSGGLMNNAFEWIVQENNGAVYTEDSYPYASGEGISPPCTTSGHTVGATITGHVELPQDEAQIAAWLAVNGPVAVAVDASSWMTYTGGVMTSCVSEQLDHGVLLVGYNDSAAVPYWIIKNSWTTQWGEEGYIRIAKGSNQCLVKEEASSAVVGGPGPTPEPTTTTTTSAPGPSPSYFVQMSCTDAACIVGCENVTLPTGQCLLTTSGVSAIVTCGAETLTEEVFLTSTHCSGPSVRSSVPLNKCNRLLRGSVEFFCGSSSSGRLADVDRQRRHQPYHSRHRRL
Method: IC50 Determinations. Inhibitors were screened for effectiveness against the T. cruzi cathepsin L-like protease (cruzain) using purified recombinant protein. Cruzain (1 nM) was incubated with 20-50000 nM inhibitor in 100 mM sodium acetate-5 mM DTT buffer (pH 5.50, buffer A) for 5 min at room temperature. […] The increase in fluorescence (excitation at 355 nm and emission at 460 nm) was followed with an automated microtiter plate spectrofluorimeter (Molecular Devices, spectraMAX Gemini). Inhibitor stock solutions were prepared at 20 mM in DMSO, and serial dilutions were made in DMSO (0.7% DMSO in assay). Controls were performed using enzyme alone and enzyme with DMSO. IC50 values were determined graphically using inhibitor concentrations in the linear portion of a plot of inhibition versus log [I] (seven concentrations were tested, and at least two were in the linear range).

cruzain = cruzain (Trypanosoma cruzi, UniProt P25779); assay type: biochemical; details: incubation 90 s to 24 h
Chain of cruzain (P25779 123-467): as above
Method: The time dependence of inhibition was determined by incubating cruzain with inhibitors, DMSO, or enzyme alone at room temperature for time points between 90 s and 24 h. The enzymatic activity was determined as above.
A known irreversible inhibitor, K002 (morpholino urea-Phe-homoPhe-vinyl sulfone benzene; Axys Pharmaceuticals Inc., South San Francisco, Calif.), and a known reversible covalent inhibitor, leupeptin, were used as controls for the thio semicarbazones.

[2] = 5 min incubation, room temperature, pH 5.50, read-out: IC50 against cruzain

| melting point | SMILES | effect on T. cruzi in cell culture (trypanocidal / trypanostatic / inactive) (T. cruzi (Y strain)) | also measured |
| --- | --- | --- | --- |
| 131.3 °C (dec.) | CC1CN(C(N)=S)N=C1c1cccc(Cl)c1 (stereo not drawn) [Compound 4d, 3-(3-Chlorophenyl)-4-methyl-2-pyrazoline-1-thiocarboxamide] | trypanocidal | – |
| 172.9 to 174.5 °C | NC(=S)N1CCC(c2cccc(Br)c2)=N1 [Compound 4a, 3-(3-Bromophenyl)-2-pyrazoline-1-thiocarboxamide] | – | decrease in activity as compared to 1i (cruzain) ([1]; compared to 1i): 2 fold; time dependence of cruzain inhibition (cruzain): time-dependent |
| 229.3 to 231.3 °C | CC(=NNC(N)=O)c1cccc(Br)c1 [Compound 6b, 3′-Bromoacetophenone Semicarbazone] | – | – |
| 192.1 to 194.8 °C | NC(=O)NN=Cc1ccc(-c2cccc(Cl)c2)o1 [Compound 6c, 5-(3-Chlorophenyl)-2-furancarboxaldehyde Semicarbazone] | – | – |
| 117 to 118.2 °C | CCCCCCNC(=S)N1CCC(c2cccc(Br)c2)=N1 [Compound 5f, 3-(3-Bromophenyl)-2-pyrazoline-1-(N-hexyl)-thiocarboxamide] | – | IC50 [1, 2]: 1000 to 2000 nM |
| 156.6 to 158 °C | CCC(=NN(SC)C(N)=O)c1cccc(Br)c1 [Compound 5a, 3′-Bromopropiophenone N-Methyl Thio Semicarbazone] | – | – |
| 107.4 to 109.9 °C | CC1CN(C(N)=S)N=C1c1cccc(Br)c1 (stereo not drawn) [Compound 4b, 3-(3-Bromophenyl)-4-methyl-2-pyrazoline-1-thiocarboxamide] | trypanocidal effect | cruzain inhibitory activity, in words [1]: better than that of 1i; IC50 [1, 2]: 80 nM; time dependence of cruzain inhibition (cruzain): time-dependent |
| 197.5 to 198.8 °C | S=C(Nc1cccc(Cl)c1)N1CCC(c2cccc(Br)c2)=N1 [Compound 5d, 3-(3-Bromophenyl)-2-pyrazoline-1-(IL3-chlorophenyl)thiocarboxamide] | no effect on the parasites | IC50 [1, 2]: 1000 to 2000 nM |
| 199.3 to 201.4 °C | NC(=S)N1CCC(c2ccc(Cl)c(Cl)c2)=N1 [Compound 4e, 3-(3,4-Dichlorophenyl)-2-pyrazoline-1-thiocarboxamide] | trypanocidal | cruzain inhibitory activity, in words [1]: better than that of 1i |
| 159.2 to 161.1 °C | NC(=S)N1CCC(c2cccc(C(F)(F)F)c2)=N1 [Compound 4g, 3-(3-Trifluoromethylphenyl)-2-pyrazoline-1-thiocarboxamide] | inactive | cruzain inhibitory activity, in words [1]: better than that of 1i |

The next lines start with the molecule.

| SMILES | melting point | effect on T. cruzi in cell culture (trypanocidal / trypanostatic / inactive) (T. cruzi (Y strain)) | also measured |
| --- | --- | --- | --- |
| Cn1cc(C=NNC(N)=S)c2ccccc21 [Compound 1m, 1-Methylindole-3-carboxaldehyde Thio Semicarbazone] | 200.3 to 201.2 °C | – | – |
| CCC(=NNC(N)=S)c1ccc(OC)cc1 [Compound 2g, 4′-Methoxypropiophenone Thio Semicarbazone] | 117.8 to 119.8 °C | – | – |
| CCC(NNC(N)=S)c1cccc(Br)c1 (stereo not drawn) [Compound 7a, 1-(3′-bromophenyl)propylaminothiourea] | – | – | cruzain inhibitory activity, in words [1]: poor activity; time dependence of cruzain inhibition (cruzain): showed time dependency |
| CCC(=NNC(N)=S)c1ccc(Cl)cc1 [Compound 2f, 4′-Chloropropiophenone Thio Semicarbazone] | 175.1 to 176.8 °C | – | – |
| CCC(=NNC(N)=S)c1cc(C(F)(F)F)cc(C(F)(F)F)c1 [Compound 2h, 3′,5′-bis(trifluoromethyl)propiophenone Thio Semicarbazone] | – | – | cruzain inhibitory activity, in words [1]: better IC50 values than 1i; IC50 [1, 2]: 20 nM; increase in activity over 1i (cruzain) ([1]; compared to 1i): ~5 fold |
| CCC(=NNC(N)=S)c1ccc2cc(OC)ccc2c1 [Compound 1k, 6′-Methoxy-2′-propiononaphthone Thio Semicarbazone] | 170.5 to 171.2 °C | – | – |
| CC(=NNC(N)=S)c1ccccc1Cl [Compound 2m, 2′-Chloroacetophenone Thio Semicarbazone] | 155.8 to 156.7 °C | – | – |
| CCC(=NNC(N)=S)c1ccccc1 [Compound 2d, Propiophenone Thio Semicarbazone] | 116.8 to 117.9 °C | – | drop / loss of activity compared to 1i (cruzain) ([1]; compared to 1i): at least 2 orders of magnitude |
| NC(=S)NN=Cc1ccccc1C(F)(F)F [Compound 2p, 2-Trifluoromethylbenzaldehyde Thio Semicarbazone] | 248.3 to 249.4 °C | – | – |
| FC(F)(F)c1cccc(NC(=S)N2CCC(c3cccc(Cl)c3)=N2)c1 [Compound 5e, 3-(3-Chlorophenyl)-2-pyrazoline-1-(N-3-tri-fluoromethylphenyl)thiocarboxamide] | – | – | time dependence of cruzain inhibition (cruzain): showed time dependency |
| CCC(=NNC(N)=S)c1ccc(Br)cc1 [Compound 2e, 4′-Bromopropiophenone Thio Semicarbazone] | 171.3 to 173 °C | – | – |
| CN(C)c1ccc(C=NNC(N)=S)c2ccccc12 [Compound 1l, 4-Dimethylamino-1-naphthaldehyde Thio Semicarbazone] | 170.5 to 171.2 °C | – | – |
| CC(=NNC(N)=S)c1ccc(Cl)c(Cl)c1 [Compound 3h, 3′,4′-Dichloroacetophenone Thio Semicarbazone] | – | trypanocidal | cruzain inhibitory activity, in words [1]: better IC50 values than 1i |
| CCC(=NNC(N)=S)c1ccc(Cl)cc1Cl [Compound 2j, 2′,4′-Dichloropropiophenone Thio Semicarbazone] | 171.8 to 173 °C | – | – |
| CCC(=NNC(N)=S)c1cccc(F)c1 [Compound 2c, 3′-Fluoropropiophenone Thio Semicarbazone] | 138.8 to 139.5 °C | – | – |
| CC(=O)N[C@@H](CC(C)C)C(=O)N[C@@H](CC(C)C)C(=O)N[C@H](C=O)CCCNC(=N)N [leupeptin, reference compound] | – | – | time dependence of cruzain inhibition (cruzain): rapidly time-dependent |
| NC(=S)NN=Cc1cccc(Br)c1 [Compound 3a, 3-Bromobenzaldehyde Thio Semicarbazone] | – | – | IC50 [1, 2]: 1300 nM; time dependence of cruzain inhibition (cruzain): time-dependent |
| CC(=NNC(N)=S)c1ccccc1Br [Compound 2l, 2′-Bromoacetophenone Thio Semicarbazone] | 144.5 to 146.2 °C | – | – |
| CCC(=NNC(N)=S)c1cccc(Cl)c1 [Compound 2a, 3′-Chloropropiophenone Thio Semicarbazone] | – | trypanocidal | IC50 [1]: 220 nM |
| CC(=NNC(N)=S)c1cc(C(F)(F)F)cc(C(F)(F)F)c1 [Compound 3f, 3′,5′-Bis(trifluoromethyl)acetophenone Thio Semicarbazone] | – | trypanostatic | cruzain inhibitory activity, in words [1]: better IC50 values than 1i |
| NC(=S)N1CCC(c2cccc(Cl)c2)=N1 [Compound 4c, 3-(3-Chlorophenyl)-2-pyrazoline-1-thiocarboxamide] | – | inactive | – |
| CC(=NNC(N)=S)c1cccc(C(F)(F)F)c1 [Compound 3d, 3-Trifluoromethylacetophenone Thio Semicarbazone] | – | trypanostatic | – |
| CCC(=NNC(N)=S)c1cccc(C(F)(F)F)c1 [Compound 2b, 3′-Trifluoromethylpropiophenone Thio Semicarbazone] | – | trypanocidal | cruzain inhibitory activity, in words [1]: better IC50 values than 1i; IC50 [1, 2]: 50 nM |
| CC1CN(C(N)=S)N=C1c1cccc(C(F)(F)F)c1 (stereo not drawn) [Compound 4h, 3-(3-Trifluoromethylphenyl)-4-methyl-2-pyrazoline-1-thiocarboxamide] | 120.8 to 121.9 °C | trypanocidal | cruzain inhibitory activity, in words [1]: better than that of 1i |
| CC(=NNC(N)=S)c1cccc(Br)c1 [Compound 3b, 3′-Bromoacetophenone Thio Semicarbazone] | – | trypanocidal effect | IC50 [1, 2]: 200 nM; time dependence of cruzain inhibition (cruzain): time-dependent |
